Reference: patent US20250136578A1 (Kolm Therapeutics Inc., priority 2023, published 2025)
Where two headings read alike, the source gives them in different places.

Experiments:
[1] = biological target: AR / CBP ternary complex (Homo sapiens, UniProt P10275+Q92793); test: Ternary complex formation assay (sandwich ELISA, AR capture, CBP antibody detection) in VCaP cell lysates; type: cell-based
In short: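 VCaP cells in 5% charcoal-stripped FBS were cultured ≥3 days and then given bifunctional compound for 1.5 h. Lysates went onto AR-antibody-coated plates. Bound CBP (or p300) was detected with a rabbit antibody plus HRP anti-rabbit, using QuantaRed chemifluorescence (ex 570/em 585) read immediately, at 5 min and at 15 min.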

[2] = test system: VCaP cells; test: VCaP growth inhibition assay (CTG); type: cell-based; conditions: Homo sapiens, 216 h, 30 pM R1881, 9 days
Procedure: VCaP cells (ATCC Cat #CRL-2876) are plated at 1×10^4 cells per well of a white plastic 96-well cluster plate (Thermo Scientific Nunc Cat #165306) in 100 uL phenol red-free DMEM (Gibco Cat #21063-029) media with 5% CSS (Omega Scientific Cat #FB-04). Cluster plates are returned to the incubator (37*C/5% CO2) for 72 hours prior to treatment. Just prior to treatment, 100 uL of phenol red-free DMEM/5% CSS and 60 pM R1881 (Sigma Cat #R0908-10 mg) was added to each well of the cluster plates (Final R1881 concentration=30 pM). Compounds (200X) were added to each well in a volume of 1 uL, with serial dilutions (1:5) from 20 uM to 2 pM (final concentrations in well are 100 nM to 10 fM). Cluster plates are returned to the incubator for 9 days.
After the 9-day treatment period, media was removed from the cluster plates by inversion and 100 uL room temperature CTG reagent (Promega Cat #G7573) is added to each well. The cluster plates are placed on a shaker and incubated at room temperature for 20 minutes. Following this shaking/incubation, cluster plates are read on a luminometer (BMG ClarioStar). IC50 values are obtained by graphing the RLU data vs. compound concentration with nonlinear regression 4-parameter logistic curves (GraphPad Prism).

[3] = treated 1.5 hours, rabbit CBP or p300 antibody detection, average, read-out: Average Ternary Complex
[4] = read-out: Average Ternary Complex, treated 1.5 hours, rabbit CBP or p300 antibody detection

Sequence of AR / CBP ternary complex (P10275 whole entry): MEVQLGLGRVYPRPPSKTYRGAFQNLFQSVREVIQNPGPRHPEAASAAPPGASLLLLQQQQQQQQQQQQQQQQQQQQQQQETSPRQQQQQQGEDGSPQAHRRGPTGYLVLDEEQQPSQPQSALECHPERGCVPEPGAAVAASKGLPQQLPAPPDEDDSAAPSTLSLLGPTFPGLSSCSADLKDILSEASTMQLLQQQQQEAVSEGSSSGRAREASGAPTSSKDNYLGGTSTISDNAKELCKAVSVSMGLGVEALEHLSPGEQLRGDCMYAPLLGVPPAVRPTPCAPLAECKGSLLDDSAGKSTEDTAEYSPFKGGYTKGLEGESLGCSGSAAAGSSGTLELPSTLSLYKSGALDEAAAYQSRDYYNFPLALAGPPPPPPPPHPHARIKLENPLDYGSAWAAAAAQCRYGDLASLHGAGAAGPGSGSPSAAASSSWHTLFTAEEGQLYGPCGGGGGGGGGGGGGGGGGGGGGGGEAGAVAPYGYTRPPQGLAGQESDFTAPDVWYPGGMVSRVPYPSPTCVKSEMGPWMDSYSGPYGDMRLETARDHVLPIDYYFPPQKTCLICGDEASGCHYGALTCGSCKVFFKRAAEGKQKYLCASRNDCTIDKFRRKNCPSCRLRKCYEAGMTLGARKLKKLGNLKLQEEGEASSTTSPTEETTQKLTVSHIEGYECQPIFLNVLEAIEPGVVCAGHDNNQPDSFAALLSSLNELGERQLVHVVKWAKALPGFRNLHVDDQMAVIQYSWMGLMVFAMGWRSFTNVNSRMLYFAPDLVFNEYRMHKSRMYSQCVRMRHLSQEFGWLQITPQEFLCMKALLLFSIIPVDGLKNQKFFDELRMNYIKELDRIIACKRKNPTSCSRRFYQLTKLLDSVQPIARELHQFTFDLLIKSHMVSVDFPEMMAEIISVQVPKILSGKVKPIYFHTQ
Sequence of AR / CBP ternary complex (Q92793 2-2442): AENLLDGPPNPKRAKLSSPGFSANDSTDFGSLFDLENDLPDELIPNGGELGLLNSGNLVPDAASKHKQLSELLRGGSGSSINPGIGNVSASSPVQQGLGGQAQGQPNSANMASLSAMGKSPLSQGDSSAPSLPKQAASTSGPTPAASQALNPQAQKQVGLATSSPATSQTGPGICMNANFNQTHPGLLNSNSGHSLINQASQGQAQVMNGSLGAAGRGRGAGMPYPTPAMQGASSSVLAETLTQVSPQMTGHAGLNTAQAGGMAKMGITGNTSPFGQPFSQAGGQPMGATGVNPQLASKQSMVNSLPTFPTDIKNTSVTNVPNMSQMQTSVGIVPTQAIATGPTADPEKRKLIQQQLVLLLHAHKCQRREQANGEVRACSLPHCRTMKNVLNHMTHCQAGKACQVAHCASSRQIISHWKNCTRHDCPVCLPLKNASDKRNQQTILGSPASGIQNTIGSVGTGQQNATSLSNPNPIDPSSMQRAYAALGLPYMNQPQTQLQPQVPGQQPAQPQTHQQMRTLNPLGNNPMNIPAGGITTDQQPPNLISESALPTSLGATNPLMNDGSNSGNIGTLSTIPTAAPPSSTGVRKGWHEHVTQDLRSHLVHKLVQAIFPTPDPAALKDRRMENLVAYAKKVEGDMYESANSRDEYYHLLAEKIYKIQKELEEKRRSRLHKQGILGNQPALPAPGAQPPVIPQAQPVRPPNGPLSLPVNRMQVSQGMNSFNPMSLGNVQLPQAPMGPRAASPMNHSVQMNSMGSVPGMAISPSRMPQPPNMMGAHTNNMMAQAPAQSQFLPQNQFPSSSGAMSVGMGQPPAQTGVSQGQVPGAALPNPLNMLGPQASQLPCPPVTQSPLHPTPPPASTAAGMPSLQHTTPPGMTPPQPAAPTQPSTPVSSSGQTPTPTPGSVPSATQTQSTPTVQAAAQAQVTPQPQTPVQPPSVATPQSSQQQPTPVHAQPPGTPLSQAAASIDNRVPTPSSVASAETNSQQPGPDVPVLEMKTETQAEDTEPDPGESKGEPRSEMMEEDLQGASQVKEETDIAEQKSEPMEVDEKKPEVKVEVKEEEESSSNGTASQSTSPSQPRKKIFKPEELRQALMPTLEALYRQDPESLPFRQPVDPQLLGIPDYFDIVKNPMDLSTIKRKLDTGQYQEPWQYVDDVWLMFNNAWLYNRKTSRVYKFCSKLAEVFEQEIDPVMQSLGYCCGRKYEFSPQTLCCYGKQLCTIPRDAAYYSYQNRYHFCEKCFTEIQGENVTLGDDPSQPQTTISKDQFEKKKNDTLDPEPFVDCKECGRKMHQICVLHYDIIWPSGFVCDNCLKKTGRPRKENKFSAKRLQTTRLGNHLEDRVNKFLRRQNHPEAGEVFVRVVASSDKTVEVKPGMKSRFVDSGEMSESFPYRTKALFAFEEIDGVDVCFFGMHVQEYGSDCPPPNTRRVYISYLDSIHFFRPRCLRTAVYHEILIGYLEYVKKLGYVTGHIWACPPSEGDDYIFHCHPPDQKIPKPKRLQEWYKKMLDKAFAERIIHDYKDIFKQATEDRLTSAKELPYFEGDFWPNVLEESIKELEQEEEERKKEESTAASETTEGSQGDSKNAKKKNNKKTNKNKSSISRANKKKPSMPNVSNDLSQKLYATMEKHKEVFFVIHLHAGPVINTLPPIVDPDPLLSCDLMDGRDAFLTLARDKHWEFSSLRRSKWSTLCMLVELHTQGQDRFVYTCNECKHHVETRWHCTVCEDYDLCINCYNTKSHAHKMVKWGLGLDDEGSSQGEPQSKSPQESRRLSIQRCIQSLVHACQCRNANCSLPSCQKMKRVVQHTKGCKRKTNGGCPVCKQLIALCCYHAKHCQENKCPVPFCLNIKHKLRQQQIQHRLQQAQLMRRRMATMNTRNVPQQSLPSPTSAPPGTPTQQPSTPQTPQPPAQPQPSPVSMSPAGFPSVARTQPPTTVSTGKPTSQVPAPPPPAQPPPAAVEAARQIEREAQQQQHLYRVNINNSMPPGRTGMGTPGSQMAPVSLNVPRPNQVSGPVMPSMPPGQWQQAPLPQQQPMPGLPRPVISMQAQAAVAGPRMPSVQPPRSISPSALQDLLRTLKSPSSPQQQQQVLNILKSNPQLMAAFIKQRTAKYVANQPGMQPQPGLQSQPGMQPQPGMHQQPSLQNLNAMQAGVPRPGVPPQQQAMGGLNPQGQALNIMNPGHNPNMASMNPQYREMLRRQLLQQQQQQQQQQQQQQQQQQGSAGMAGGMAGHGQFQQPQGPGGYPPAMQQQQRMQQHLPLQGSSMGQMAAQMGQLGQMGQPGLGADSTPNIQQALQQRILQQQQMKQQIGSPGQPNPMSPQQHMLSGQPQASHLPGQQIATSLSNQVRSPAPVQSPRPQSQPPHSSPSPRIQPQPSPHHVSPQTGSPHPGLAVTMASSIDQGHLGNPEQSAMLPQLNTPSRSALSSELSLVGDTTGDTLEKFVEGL

SMILES	EC50 [1, 3]	IC50 [2]	EC50 [1, 4]
COC(=O)N1c2ccc3c(nc(Cc4ccccc4)n3[C@@H]3CCC[C@H](OCC4CCN(c5ccc(C(=O)N[C@H]6CC[C@H](Oc7ccc(C#N)c(Cl)c7)CC6)nn5)CC4)C3)c2CC[C@@H]1C [Compound 257]	1 to 10 nM	0.1 to 1 nM	–
CC(=O)N1CCc2c(c(N3CCCc4cc(-c5cnn(C)c5)c(C(F)F)cc43)nn2C2CCC3(CC2)CC(N2CCN(c4ccc(C(=O)N[C@H]5CC[C@H](Oc6ccc(C#N)c(Cl)c6)CC5)nn4)CC2)C3)C1 (some centres unmarked) [Compound 208, 6-[4-[7-[5-acetyl-3-[7-(difluoromethyl)-6-(1-methylpyrazol-4-yl)-3,4-dihydro-2H-quinolin-1-yl]-6,7-dihydro-4H-pyrazolo[4,3-c]pyridin-1-yl]spiro[3.5]nonan-2-yl]piperazin-1-yl]-N-[4-(3-chloro-4-cyano-phenoxy)cyclohexyl]pyridazine-3-carboxamide]	–	≤ 0.1 nM	< 1 nM
Cn1c(=O)n(C)c2cc(-c3cccc4cc(-c5ccc(CCC6CCN(c7ccc(C(=O)N[C@H]8CC[C@H](Oc9ccc(C#N)c(Cl)c9)CC8)nn7)CC6)nc5)ncc34)ccc21 [Compound 52, N-[4-(3-chloro-4-cyano-phenoxy)cyclohexyl]-6-[4-[2-[5-[8-(1,3-dimethyl-2-oxo-benzimidazol-5-yl)-3-isoquinolyl]-2-pyridyl]ethyl]-1-piperidyl]pyridazine-3-carboxamide]	1 to 10 nM	> 100 nM	–
CC(=O)N1CCc2c(c(N3CCCc4cc(-c5cnn(C)c5)c(C(F)F)cc43)nn2[C@@H]2C[C@H]3CC[C@@H](C2)N3CC2CCN(c3ccc(C(=O)N[C@H]4CC[C@H](Oc5ccc(C#N)c(Cl)c5)CC4)nn3)CC2)C1 [Compound 152, 6-[4-[[(1R,5S)-3-[5-acetyl-3-[7-(difluoromethyl)-6-(1-methylpyrazol-4-yl)-3,4-dihydro-2H-quinolin-1-yl]-6,7-dihydro-4H-pyrazolo[4,3-c]pyridin-1-yl]-8-azabicyclo[3.2.1]octan-8-yl]methyl]-1-piperidyl]-N-[4-(3-chloro-4-cyano-phenoxy)cyclohexyl]pyridazine-3-carboxamide]	–	0.1 to 1 nM	< 1 nM
CC(=O)N1CCc2c(c(-c3cccc4cc(-c5ccc(CCN6CCN(c7ccc(C(=O)N[C@H]8CC[C@H](Oc9ccc(C#N)c(Cl)c9)CC8)nn7)CC6)nc5)ncc34)nn2C2CCOCC2)C1 [Compound 28, 6-[4-[2-[5-[8-(5-acetyl-1-tetrahydropyran-4-yl-6,7-dihydro-4H-pyrazolo[4,3-c]pyridin-3-yl)-3-isoquinolyl]-2-pyridyl]ethyl]piperazin-1-yl]-N-[4-(3-chloro-4-cyano-phenoxy)cyclohexyl]pyridazine-3-carboxamide]	< 1 nM	≤ 0.1 nM	–
CC(=O)N1CCc2c(c(-c3cccc4cc(-c5cnn(CC6CC7(C6)CN(c6ccc(C(=O)N[C@H]8CC[C@H](Oc9ccc(C#N)c(Cl)c9)CC8)nn6)C7)c5)ncc34)nn2C)C1 [Compound 47, 6-[6-[[4-[8-(5-acetyl-1-methyl-6,7-dihydro-4H-pyrazolo[4,3-c]pyridin-3-yl)-3-isoquinolyl]pyrazol-1-yl]methyl]-2-azaspiro[3.3]heptan-2-yl]-N-[4-(3-chloro-4-cyano-phenoxy)cyclohexyl]pyridazine-3-carboxamide]	–	0.1 to 1 nM	1 to 10 nM
CC(=O)N1CCc2c(c(-c3cccc4cc(C5CC5)ncc34)nn2C2CCN(C(=O)C3CCN(c4ccc(C(=O)N[C@H]5CC[C@H](Oc6ccc(C#N)c(Cl)c6)CC5)nn4)CC3)CC2)C1 [Compound 170, 6-[4-[4-[5-acetyl-3-(3-cyclopropyl-8-isoquinolyl)-6,7-dihydro-4H-pyrazolo[4,3-c]pyridin-1-yl]piperidine1-carbonyl]-1-piperidyl]-N-[4-(3-chloro-4-cyano-phenoxy)cyclohexyl]pyridazine-3-carboxamide]	< 1 nM	0.1 to 1 nM	–

Second part, led by results:

EC50 [1, 3]	IC50 [2]	SMILES	EC50 [1, 4]
< 1 nM	≤ 0.1 nM	CC(=O)N1CCc2c(c(N3CCCc4cc(-c5cnn(C)c5)c(C(F)F)cc43)nn2C2CC3(C2)CN(CC2CC4(C2)CN(c2ccc(C(=O)N[C@H]5CC[C@H](Oc6ccc(C#N)c(Cl)c6)CC5)nn2)C4)C3)C1 (some centres unmarked) [Compound 41, 6-[6-[[6-[5-acetyl-3-[7-(difluoromethyl)-6-(1-methylpyrazol-4-yl)-3,4-dihydro-2H-quinolin-1-yl]-6,7-dihydro-4H-pyrazolo[4,3-c]pyridin-1-yl]-2-azaspiro [3.3]heptan-2-yl]methyl]-2-azaspiro [3.3]heptan-2-yl]-N-[4-(3-chloro-4-cyano-phenoxy)cyclohexyl] pyridazine-3-carboxamide]	–
< 1 nM	≤ 0.1 nM	CO[C@H]1CN(c2ccc(C(=O)N[C@H]3CC[C@H](Oc4ccc(C#N)c(Cl)c4)CC3)nn2)CC[C@@H]1CN1CCC(n2nc(N3CCCc4cc(-c5cnn(C)c5)c(C(F)F)cc43)c3c2CCN(C(C)=O)C3)CC1 (stereo in doubt) [Compound 220, 6-[4-[[4-[5-acetyl-3-[7-(difluoromethyl)-6-(1-methylpyrazol-4-yl)-3,4-dihydro-2H-quinolin-1-yl]-6,7-dihydro-4H-pyrazolo[4,3-c]pyridin-1-yl]-1-piperidyl]methyl]-3-methoxy-1-piperidyl]-N-[4-(3-chloro-4-cyano-phenoxy)cyclohexyl]pyridazine-3-carboxamide]	–
< 1 nM	0.1 to 1 nM	CC(=O)N1CCc2c(c(N3CCCc4cc(-c5cnn(C)c5)c(C(F)F)cc43)nn2C2CCC3(CC2)CCN(c2ccc(C(=O)N[C@H]4CC[C@H](Oc5ccc(C#N)c(Cl)c5)CC4)nn2)CC3)C1 [Compound 112, 6-[9-[5-acetyl-3-[7-(difluorodimethyl)-6-(1-methylpyrazol-4-yl)-3,4-dihydro-2H-quinolin-1-yl]-6,7-dihydro-4H-pyrazolo[4,3-c]pyridin-1-yl]-3-azaspiro[5.5]undecan-3-yl]-N-[4-(3-chloro-4-cyano-phenoxy)cyclohexyl]pyridazine-3-carboxamide]	–
< 1 nM	≤ 0.1 nM	CC(=O)N1CCc2c(c(N3CCCc4cc(-c5cnn(C)c5)c(C)cc43)nn2C2CCN(C[C@H]3[C@H](C)CN(c4ccc(C(=O)N[C@H]5CC[C@H](Oc6ccc(C#N)c(Cl)c6)CC5)nn4)C[C@@H]3C)CC2)C1 [Compound 281]	–
< 1 nM	0.1 to 1 nM	CC(=O)N1CCc2c(c(N3CCCc4cc(-c5cnn(C)c5)c(C(F)F)cc43)nn2[C@H]2CC[C@H](N3CCC4(CC3)CC(Oc3ccc(C(=O)N[C@H]5CC[C@H](Oc6ccc(C#N)c(Cl)c6)CC5)nn3)C4)CC2)C1 [Compound 248]	–
< 1 nM	≤ 0.1 nM	CC(=O)N1CCc2c(c(N3CCCc4cc(-c5cnn(C)c5)c(C)cc43)nn2C2CCN(CC3CCN(c4ccc(C(=O)N[C@H]5CC[C@H](Oc6ccc(C#N)c(C)c6)CC5)nn4)CC3(C)C)CC2)C1 (some centres unmarked) [Compound 293, 6-[4-[[4-[5-acetyl-3-[7-methyl-6-(1-methylpyrazol-4-yl)-3,4-dihydro-2H-quinolin-1-yl]-6,7-dihydro-4H-pyrazolo[4,3-c]pyridin-1-yl]-1-piperidyl]methyl]-3,3-dimethyl-1-piperidyl]-N-[4-(4-cyano-3-methyl-phenoxy)cyclohexyl]pyridazine-3-carboxamide]	–
< 1 nM	≤ 0.1 nM	CC(=O)N1CCc2c(c(N3CCCc4cc(-c5cscn5)c(C(F)F)cc43)nn2C2CCN(CC3CCN(c4ccc(C(=O)N[C@H]5CC[C@H](Oc6ccc(C#N)c(Cl)c6)CC5)nn4)CC3)CC2)C1 [Compound 253, 6-[4-[[4-[5-acetyl-3-[7-(difluoromethyl)-6-thiazol-4-yl-3,4-dihydro-2H-quinolin-1-yl]-6,7-dihydro-4H-pyrazolo[4,3-c]pyridin-1-yl]-1-piperidyl]methyl]-1-piperidyl]-N-[4-(3-chloro-4-cyano-phenoxy)cyclohexyl] pyridazine-3-carboxamide]	–
< 1 nM	0.1 to 1 nM	CC(=O)N1CCc2c(c(N3CCCc4cc(-c5cnn(C)c5)c(C(F)F)cc43)nn2C2CC3(C2)CC2(CCN(c4ccc(C(=O)N[C@H]5CC[C@H](Oc6ccc(C#N)c(Cl)c6)CC5)nn4)CC2)C3)C1 [Compound 191, 6-[2-[5-acetyl-3-[7-(difluoromethyl)-6-(1-methylpyrazol-4-yl)-3,4-dihydro-2H-quinolin-1-yl]-6,7-dihydro-4H-pyrazolo[4,3-c]pyridin-1-yl]-9-azadispiro[3.1.56.14]dodecan-9-yl]-N-[4-(3-chloro-4-cyano-phenoxy)cyclohexyl] pyridazine-3-carboxamide]	–
< 1 nM	≤ 0.1 nM	CC(=O)N1CCc2c(c(N3CCCc4cc(C#N)ncc43)nn2C2CCN(C(=O)C3CCN(c4ccc(C(=O)N[C@H]5CC[C@H](Oc6ccc(C#N)c(Cl)c6)CC5)nn4)CC3)CC2)C1 [Compound 69, 6-[4-[4-[5-acetyl-3-(6-cyano-3,4-dihydro-2H-1,7-naphthyridin-1-yl)-6,7-dihydro-4H-pyrazolo[4,3-c]pyridin-1-yl]piperidine-1-carbonyl]-1-piperidyl]-N-[4-(3-chloro-4-cyano-phenoxy)cyclohexyl]pyridazine-3-carboxamide]	–
